Results reported in patent US20230085307A1, “PYRIDAZINONE COMPOUND AND HERBICIDE” (NISSAN CHEMICAL CORPORATION, priority 2019, published 2023).

Legend:
Chinese sprangletop = experiment: Test Example 3: herbicidal effect by foliage application, Wagner pot (Table 18, symbol D); format: in vivo, chinese sprangletop (Leptochloa chinensis); conditions: 320 g/ha
Summary of the method: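 Plants were sown in alluvial soil held under 0.1–0.5 cm standing water and grown 14 days in a greenhouse at 25–30 °C. An emulsifiable formulation, water-diluted to the set dose, was then sprayed onto the foliage, and effects were scored three weeks later using previously defined criteria.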

oval-leafed pondweed [1] = experiment: Test Example 2: herbicidal activity, application during weed generation under submerged conditions (Table 17, symbol C); format: in vivo, oval-leafed pondweed (Monochoria vaginalis); conditions: AAH 320 g/ha; application during weed generation, submerged conditions
Summary of the method: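 3-wk visual-criteria score after one water-surface dose. Emulsion formulation, water-diluted to set rate; applied at 1–2 leaf stage; alluvial soil, 4 cm standing water; seeds co-sown; greenhouse 25–30° C.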

oval-leafed pondweed [2] = experiment: Test Example 1: herbicidal activity, application before weed generation under submerged conditions (Table 16, symbol C); format: in vivo, oval-leafed pondweed (Monochoria vaginalis); conditions: 320 g/ha applied herbicide
Summary of the method: (§1)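 Alluvial soil was flooded to 4 cm depth, weed seeds were sown mixed and 2.5-leaf rice seedlings were transplanted. On sowing day, the compound's emulsion, diluted in water to a set dose, was applied to the water surface. Plants grew at 25–30 °C and were scored 0–5 after three weeks.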

southern crabgrass = experiment: Test Example 5: herbicidal effect by foliage application, plastic box (Table 20, symbol F); format: in vivo, southern crabgrass (Digitaria ciliaris); conditions: foliage application; for F: southern crabgrass, herbicidal effect: AAH 320 g/ha, three weeks after application; for effect on southern crabgrass (F): 320 g/ha, 3 weeks after application
Summary of the method: (§2)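 Foliar spray test: emulsion formulation diluted in water to a set application rate, sprayed onto 14-day-old plants raised in diluvial soil at 25° C to 30° C under glass. Both herbicidal effect and crop effect rated visually three weeks later.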

barnyard grass = experiment: Test Example 5: herbicidal effect by foliage application, plastic box (Table 20, symbol H); format: in vivo, barnyard grass (Echinochloa crus-galli); conditions: foliage application; for H: barnyard grass, herbicidal effect: AAH 320 g/ha, three weeks after application; for effect on barnyard grass (H): 320 g/ha, 3 weeks after application
Summary of the method: as §2

late watergrass = experiment: Test Example 1: herbicidal activity, application before weed generation under submerged conditions (Table 16, symbol A); format: in vivo, late watergrass (Echinochloa oryzicola); conditions: 320 g/ha applied herbicide
Summary of the method: as §1

windgrass = experiment: Test Example 4: herbicidal effect by soil treatment (Table 19, symbol L); format: in vivo, windgrass (Apera spica-venti); conditions: for L: windgrass, herbicidal effect rating: AAH 320 g/ha
Summary of the method: (§3)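 Step 1: sow seeds in sterilized diluvial soil, cover ~1.5 cm. Step 2: spray diluted emulsion onto soil surface at predetermined rate. Step 3: greenhouse, 25–30° C, three weeks. Step 4: grade effect on each plant by earlier criteria.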

persian speedwell = experiment: Test Example 4: herbicidal effect by soil treatment (Table 19, symbol R); format: in vivo, Persian speedwell (Veronica persica); conditions: for R: persian speedwell, herbicidal effect rating: AAH 320 g/ha
Summary of the method: as §3

blackgrass = experiment: Test Example 4: herbicidal effect by soil treatment (Table 19, symbol J); format: in vivo, blackgrass (Alopecurus myosuroides); conditions: for J: blackgrass, herbicidal effect rating: AAH 320 g/ha
Summary of the method: as §3

Japanese bulrush = experiment: Test Example 1: herbicidal activity, application before weed generation under submerged conditions (Table 16, symbol B); format: in vivo, Japanese bulrush (Schoenoplectus juncoides); conditions: 320 g/ha applied herbicide
Summary of the method: as §1

lambsquarters = experiment: Test Example 5: herbicidal effect by foliage application, plastic box (Table 20, symbol O); format: in vivo, lambsquarters (Chenopodium album); conditions: foliage application; for O: lambsquarters, herbicidal effect: AAH 320 g/ha, three weeks after application; for effect on lambsquarters (O): 320 g/ha, 3 weeks after application
Summary of the method: as §2

Row | SMILES | herbicidal effect on D (Chinese sprangletop), rating 0-5 (Chinese sprangletop) | herbicidal effect rating, C: oval-leafed pondweed (oval-leafed pondweed [1]) | Herbicidal effect on C: oval-leafed pondweed (grade 0-5) (oval-leafed pondweed [2]) | F: southern crabgrass, herbicidal effect (southern crabgrass) | H: barnyard grass, herbicidal effect (barnyard grass) | Herbicidal effect on A: late watergrass (grade 0-5) (late watergrass) | L: windgrass, herbicidal effect rating (windgrass) | R: persian speedwell, herbicidal effect rating (persian speedwell) | J: blackgrass, herbicidal effect rating (blackgrass) | Herbicidal effect on B: Japanese bulrush (grade 0-5) (Japanese bulrush) | O: lambsquarters, herbicidal effect (lambsquarters) | effect on southern crabgrass (F) (southern crabgrass) | effect on barnyard grass (H) (barnyard grass) | effect on lambsquarters (O) (lambsquarters) | herbicidal effect rating, L: windgrass (windgrass; 320 g/ha) | herbicidal effect rating, R: persian speedwell (persian speedwell; 320 g/ha) | herbicidal effect rating, J: blackgrass (blackgrass; 320 g/ha)
1 | CCCC(=O)Oc1c(C)nn(C)c(=O)c1-c1c(-c2ccc(C(F)(F)F)cc2)sc2ccccc12 [1-130] | 3 (Herbicidal rate of 40% or more and less than 70%) | 0 (Herbicidal rate of 5% or less (almost no effect)) | 3 (Herbicidal rate of 40% or more and less than 70%) | 0 (Herbicidal rate of 5% or less (almost no effect)) | 0 (Herbicidal rate of 5% or less (almost no effect)) | 3 (Herbicidal rate of 40% or more and less than 70%) | 0 (Herbicidal rate of 5% or less (almost no effect)) | 3 (Herbicidal rate of 40% or more and less than 70%) | 0 (Herbicidal rate of 5% or less (almost no effect)) | 3 (Herbicidal rate of 40% or more and less than 70%) | 4 (Herbicidal rate of 70% or more and less than 90%) |  |  |  |  |  | 
2 | C#CCOc1ccc(-c2sc3ccccc3c2-c2c(O)c(C)nn(C)c2=O)cc1 [1-136] | 4 (Herbicidal rate of 70% or more and less than 90%) | 0 (Herbicidal rate of 5% or less (almost no effect)) | 0 (Herbicidal rate of 5% or less (almost no effect)) | 0 (Herbicidal rate of 5% or less (almost no effect)) | 4 (Herbicidal rate of 70% or more and less than 90%) | 3 (Herbicidal rate of 40% or more and less than 70%) | 0 (Herbicidal rate of 5% or less (almost no effect)) | 4 (Herbicidal rate of 70% or more and less than 90%) | 0 (Herbicidal rate of 5% or less (almost no effect)) | 2 (Herbicidal rate of 20% or more and less than 40%) | 4 (Herbicidal rate of 70% or more and less than 90%) |  |  |  |  |  | 
3 | Cc1nn(C)c(=O)c(-c2c(-c3ccc([N+](=O)[O-])cc3)sc3ccccc23)c1O [1-151] | 3 (Herbicidal rate of 40% or more and less than 70%) | 0 (Herbicidal rate of 5% or less (almost no effect)) | 3 (Herbicidal rate of 40% or more and less than 70%) | 4 (Herbicidal rate of 70% or more and less than 90%) | 3 (Herbicidal rate of 40% or more and less than 70%) | 3 (Herbicidal rate of 40% or more and less than 70%) | 0 (Herbicidal rate of 5% or less (almost no effect)) | 5 (Herbicidal rate of 90% or more (almost completely withered)) | 0 (Herbicidal rate of 5% or less (almost no effect)) | 3 (Herbicidal rate of 40% or more and less than 70%) | 5 (Herbicidal rate of 90% or more (almost completely withered)) |  |  |  |  |  | 
4 | CCCC(=O)Oc1c(C)nn(C)c(=O)c1-c1c(-c2ccc([N+](=O)[O-])cc2)sc2ccccc12 [1-152] | 5 (Herbicidal rate of 90% or more (almost completely withered)) | 0 (Herbicidal rate of 5% or less (almost no effect)) | 5 (Herbicidal rate of 90% or more (almost completely withered)) | 4 (Herbicidal rate of 70% or more and less than 90%) | 4 (Herbicidal rate of 70% or more and less than 90%) | 4 (Herbicidal rate of 70% or more and less than 90%) | 0 (Herbicidal rate of 5% or less (almost no effect)) | 3 (Herbicidal rate of 40% or more and less than 70%) | 0 (Herbicidal rate of 5% or less (almost no effect)) | 3 (Herbicidal rate of 40% or more and less than 70%) | 4 (Herbicidal rate of 70% or more and less than 90%) |  |  |  |  |  | 
5 | COCCOCOc1c(C)nn(C)c(=O)c1-c1c(-c2ccc(OCCSC)cc2)sc2ccccc12 [1-221] | 5 (Herbicidal rate of 90% or more (almost completely withered)) | 3 (Herbicidal rate of 40% or more and less than 70%) | 3 (Herbicidal rate of 40% or more and less than 70%) |  |  | 5 (Herbicidal rate of 90% or more (almost completely withered)) | 0 (Herbicidal rate of 5% or less (almost no effect)) | 5 (Herbicidal rate of 90% or more (almost completely withered)) | 0 (Herbicidal rate of 5% or less (almost no effect)) | 3 (Herbicidal rate of 40% or more and less than 70%) |  | 5 (Herbicidal rate of 90% or more (almost completely withered)) | 5 (Herbicidal rate of 90% or more (almost completely withered)) | 5 (Herbicidal rate of 90% or more (almost completely withered)) |  |  | 
6 | C#CCSCc1ccc(-c2sc3ccccc3c2-c2c(O)c(C)nn(C)c2=O)cc1 [1-247] | 1 (Herbicidal rate of 5% or more and less than 20%) | 0 (Herbicidal rate of 5% or less (almost no effect)) | 0 (Herbicidal rate of 5% or less (almost no effect)) |  |  | 2 (Herbicidal rate of 20% or more and less than 40%) | 0 (Herbicidal rate of 5% or less (almost no effect)) | 4 (Herbicidal rate of 70% or more and less than 90%) | 0 (Herbicidal rate of 5% or less (almost no effect)) | 2 (Herbicidal rate of 20% or more and less than 40%) |  | 2 (Herbicidal rate of 20% or more and less than 40%) | 4 (Herbicidal rate of 70% or more and less than 90%) | 5 (Herbicidal rate of 90% or more (almost completely withered)) |  |  | 
7 | CCCC(=O)Oc1c(C)nn(C)c(=O)c1-c1c(-c2ccc(Cl)cc2)sc2ccc(F)cc12 [2-011] | 4 (Herbicidal rate of 70% or more and less than 90%) | 3 (Herbicidal rate of 40% or more and less than 70%) | 3 (Herbicidal rate of 40% or more and less than 70%) |  |  | 3 (Herbicidal rate of 40% or more and less than 70%) |  |  |  | 3 (Herbicidal rate of 40% or more and less than 70%) |  | 4 (Herbicidal rate of 70% or more and less than 90%) | 5 (Herbicidal rate of 90% or more (almost completely withered)) | 5 (Herbicidal rate of 90% or more (almost completely withered)) | 2 (Herbicidal rate of 20% or more and less than 40%) | 4 (Herbicidal rate of 70% or more and less than 90%) | 0 (Herbicidal rate of 5% or less (almost no effect))
